Experimental findings from ChEMBL document CHEMBL5380858 (J Med Chem, 2023) are described below.

Data set [1] can be described thus: Selectivity index, ratio of CC50 for cytotoxicity against human calu-3 cells to EC50 for antiviral activity against SARS CoV-2 USA-WA1/2020 infected in human Calu-3 cells. Particulars: read-out: Ratio CC50/EC50. In kind it is toxicity, cell-based.
Data set [2] in a line: Selectivity index, ratio of CC50 for cytotoxicity against human Huh7.5 cells to EC50 for antiviral activity against SARS CoV-2 USA-WA1/2020 infected in human Huh7.5 cells. Particulars: read-out: Ratio CC50/EC50. Format: toxicity, cell-based.
The nature of data set [3]: Selectivity index, ratio of CC50 for african green monkey Vero/TMPRSS2 cells to EC50 for antiviral activity against SARS CoV-2 USA-WA1/2020 infected in Vero/TMPRSS2 cells. The settings on record: read-out: Ratio CC50/EC50. In kind it is toxicity, cell-based.
Data set [4] can be described thus: Selectivity index, ratio of CC50 for cytotoxicity against human iPSC-lung cells to EC50 for antiviral activity against SARS CoV-2 USA-WA1/2020 infected in human iPSC-lung cells. In kind it is toxicity, cell-based. Particulars: read-out: Ratio CC50/EC50.
The subject of data set [5] is SARS-CoV-2. The data set is described as follows: Antiviral activity against SARS CoV-2 USA-WA1/2020 infected in human Calu-3 cells pretreated for 30 to 60 mins followed by viral infection and measured after 40 to 44 hrs by sytox green staining based analysis. Format: functional, organism-based, Severe acute respiratory syndrome coronavirus 2.
The nature of data set [6]: Cytotoxicity against human Calu-3 cells assessed as reduction in cell viability incubated for 40 to 44 hrs by celltiter-glo assay. In kind it is toxicity, cell-based. Particulars: time 40-44 hrs.
The test system of data set [7] is SARS-CoV-2. Kind of data set: Antiviral activity against SARS CoV-2 USA-WA1/2020 infected in human Huh7.5 cells pretreated for 30 to 60 mins followed by viral infection and measured after 48 hrs post infection by sytox green staining based immunofluorescence analysis. In kind it is functional, organism-based. The settings on record: Severe acute respiratory syndrome coronavirus 2, USA-WA1/2020, Huh7.5; for EC90: time 2910-2940 min.

A short description of data set [8]: Cytotoxicity against human Huh7.5 cells assessed as reduction in cell viability incubated for 48 hrs by celltiter glo assay. In kind it is toxicity, cell-based, Huh-7.5. Background: ATP-based viability assays read luminescence as a measure of living cells.
Data set [9] has as its system SARS-CoV-2. The data set is described as follows: Antiviral activity against SARS CoV-2 USA-WA1/2020 infected in Vero/TMPRSS2 cells pretreated for 30 to 60 mins followed by viral infection and measured after 38 hrs post infection by sytox green staining based immunofluorescence analysis. Format: functional, organism-based. Particulars: Severe acute respiratory syndrome coronavirus 2, USA-WA1/2020, Vero/TMPRSS2; for EC90: time 2310-2340 min.

Data set [10] in a line: Cytotoxicity against african green monkey Vero/TMPRSS2 cells assessed as reduction in cell viability incubated for 38 hrs by celltiter glo assay. In kind it is toxicity, cell-based. The settings on record: chlorocebus aethiops.
For data set [11], the system named is SARS-CoV-2. Kind of data set: Antiviral activity against SARS CoV-2 USA-WA1/2020 infected in human iPSC-lung cells pretreated for 30 to 60 mins followed by viral infection and measured after 24 hrs post infection by sytox green staining based analysis. The settings on record: Severe acute respiratory syndrome coronavirus 2, USA-WA1/2020, iPSC-Lung cell; for EC90: time 1470-1500 min. Format: functional, organism-based.

Data set [12] is described as follows: Cytotoxicity against human iPSC-lung cells assessed as reduction in number of nuclei incubated for 24 hrs by celltiter glo assay. In kind it is toxicity, cell-based, iPSC-Lung cell.
Data set [13] relates to SARS-CoV-2. The data set is described as follows: Potency index, ratio of remdesivir EC50 to test compound EC50 for antiviral activity against SARS CoV-2 USA-WA1/2020 infected in human Calu-3 cells pretreated for 30 to 60 mins followed by viral infection and measured after 40 to 44 hrs by sytox green staining based analysis. In kind it is functional, Severe acute respiratory syndrome coronavirus 2. The settings on record: time 2430-2700 min.

The test system of data set [14] is SARS-CoV-2. Kind of data set: Antiviral activity against SARS CoV-2 USA-WA1/2020 infected in human Calu-3 cells assessed as reduction in viral RNA pretreated for 30 mins followed by viral infection and measured after 48 hrs by qRT-PCR analysis. In kind it is functional, organism-based. The settings on record: Severe acute respiratory syndrome coronavirus 2, USA-WA1/2020, Calu-3. In general terms: Real-time PCR tracks product formation cycle by cycle.

Data set [15] is described as follows: Cytotoxicity against human Calu-3 cells assessed as reduction in cell viability incubated for 48.5 hrs by CellTiter-Glo assay. In kind it is toxicity, cell-based.
Setting [16] is: Severe acute respiratory syndrome coronavirus 2, USA-WA1/2020, Calu-3.
The mark [17] stands for this setting: Severe acute respiratory syndrome coronavirus 2, USA-WA1/2020, Calu-3, time 2430-2700 min.

As a reminder, the EC50 is the concentration giving half of the maximal effect. As a reminder, the EC90 is the concentration needed for an effect of 90%. By CC50 is commonly meant the concentration that lowers cell viability or growth by half.

For `CCCCCCCCCCCCCCCCCCOC[C@H](COP(=O)(O)OC[C@H]1O[C@@](C#N)(c2ccc3c(N)ncnn23)[C@H](O)[C@@H]1O)OCc1ccc(OC)c(F)c1`, the selectivity ratio was 656 in data set [1], 1170 in data set [2], more than 561 in data set [3] and more than 119 in [4].

For `CCCCCCCCCCCCCCCCCCOC[C@H](COP(=O)(O)OC[C@H]1O[C@@](C#N)(c2ccc3c(N)ncnn23)[C@H](O)[C@@H]1O)OCc1ccc(C(F)(F)F)cc1`, the selectivity ratio in [1] stood at 509.

`CCCCCCCCCCCCCCCCCCOC[C@H](COP(=O)(O)OC[C@H]1O[C@@](C#N)(c2ccc3c(N)ncnn23)[C@H](O)[C@@H]1O)OCc1ccc(C#N)cc1`: the results for the selectivity ratio in data set [1] and in [2] were 1400 and 1970, respectively.

With `CCCCCCCCCCCCCCCCOC[C@H](COP(=O)(O)OC[C@H]1O[C@@](C#N)(c2ccc3c(N)ncnn23)[C@H](O)[C@@H]1O)OCc1ccccc1`, the selectivity ratio in [1] is 934; in data set [2], more than 763; in [3] it was more than 248.

As for `CCCCCCCCCCCCCCCCOC[C@H](COP(=O)(O)OC[C@H]1O[C@@](C#N)(c2ccc3c(N)ncnn23)[C@H](O)[C@@H]1O)OCc1ccc(OC)c(F)c1`, the selectivity ratio in data set [1] was 1480; in [2], 1180; in [3], more than 246; in data set [4], more than 153.

In the case of `CCCCCCCC/C=C\CCCCCCCCOC[C@H](COP(=O)(O)OC[C@H]1O[C@@](C#N)(c2ccc3c(N)ncnn23)[C@H](O)[C@@H]1O)OCc1ccc(OC)c(F)c1`, the EC50 with SARS-CoV-2 [5] (setting [16]) amounted to 0.07 µM; with SARS-CoV-2 [7] it was 0.054 µM; with SARS-CoV-2 [9] it was 0.3 µM; in the data set on SARS-CoV-2 [11], 0.082 µM. The EC90 came to 0.149 µM with SARS-CoV-2 [5] (setting [17]), 0.095 µM with SARS-CoV-2 [7], 0.554 µM with SARS-CoV-2 [9] and 0.175 µM in the data set with SARS-CoV-2 [11]. Besides, the CC50 in data set [6] turned out to be 58.7 µM. The selectivity ratio was 839 in [1], more than 1850 in [2], more than 333 in data set [3] and more than 243 in data set [4]. The CC50 at 48 h in [8] was more than 100 µM. Further, the half-maximal cytotoxic concentration (CC50) at 38 h in [10] is more than 100 µM. In addition, the CC50 at 24 h in data set [12] is more than 20 µM. The “Ratio EC50” value with SARS-CoV-2 [13] is 3.3.

As for `CCCCCCCCCCCCCCCCCCOC[C@H](COP(=O)(O)OC[C@H]1O[C@@](C#N)(c2ccc3c(N)ncnn23)[C@H](O)[C@@H]1O)OCCC1CCCCC1`, the selectivity ratio in data set [1] is 685; in [2], 758.

On to `CCCCCCCCCCCCCCCCCCOC[C@H](COP(=O)(O)OC[C@H]1O[C@@](C#N)(c2ccc3c(N)ncnn23)[C@H](O)[C@@H]1O)OCc1ccccc1C#N`, for which the selectivity ratio was 909 in data set [1], more than 980 in data set [2] and more than 337 in data set [3]. The EC50 in the data set with SARS-CoV-2 [9] was 0.296 µM. Further, the CC50 at 38 h in [10] is more than 1010 µM.

With `CCCCCCCCCCCCCCCCCCOC[C@H](COP(=O)(O)OC[C@H]1O[C@@](C#N)(c2ccc3c(N)ncnn23)[C@H](O)[C@@H]1O)OCc1cccc(C#N)c1`, the selectivity ratio in [1] came out at 1810; in data set [2] it was 2070.

Regarding `CCCCCCCC/C=C\CCCCCCCCOC[C@H](COP(=O)(O)OC[C@H]1O[C@@](C#N)(c2ccc3c(N)ncnn23)[C@H](O)[C@@H]1O)OCc1ccccc1`, the half-maximal effective concentration (EC50) amounted to 0.193 µM in the data set on SARS-CoV-2 [5] (setting [16]), 0.109 µM with SARS-CoV-2 [7], 0.293 µM in the data set with SARS-CoV-2 [9] and 0.267 µM with SARS-CoV-2 [11]. The EC90 with SARS-CoV-2 [5] (setting [17]) was found to be 0.324 µM; with SARS-CoV-2 [7], 0.224 µM; in the data set on SARS-CoV-2 [9], 0.57 µM; with SARS-CoV-2 [11] it was 0.555 µM. The CC50 in data set [6] is 79.2 µM. Also, the selectivity ratio in data set [1] is 410; in data set [2], more than 917; in data set [3], more than 341; in data set [4], more than 74. Besides, the CC50 at 48 h in data set [8] was more than 100 µM. Further, the cytotoxic concentration (CC50) at 38 h in data set [10] is more than 100 µM. For the same molecule, in data set [12], the CC50 at 24 h was more than 20 µM.

For the molecule `CCCCCCCCCCCCCCCCCCOC[C@H](COP(=O)(O)OC[C@H]1O[C@@](C#N)(c2ccc3c(N)ncnn23)[C@H](O)[C@@H]1O)OCc1cccc(C(F)(F)F)c1`, the selectivity ratio in data set [1] was found to be 418.

For `CCCCCCCCCCCCCCCCCCOC[C@H](COP(=O)(O)OC[C@H]1O[C@@](C#N)(c2ccc3c(N)ncnn23)[C@H](O)[C@@H]1O)OCCCCCCCC`, the EC50 with SARS-CoV-2 [5] (calu-3) turned out to be 0.16 µM. The concentration for an effect of 90% (EC90) with SARS-CoV-2 [5] (time 2430-2700 min) stood at 0.625 µM. The selectivity ratio in data set [1] was more than 255; in [2], more than 177; in data set [3], more than 129.

`CCCCCCCCCCCCCCOC[C@H](COP(=O)(O)OC[C@H]1O[C@@](C#N)(c2ccc3c(N)ncnn23)[C@H](O)[C@@H]1O)OCc1ccccc1`: the selectivity ratio in [1] was more than 469; in data set [2], more than 636; in data set [3], more than 110.

For `CCCCCCCCCCCCCCCCCCOC[C@H](COP(=O)(O)OC[C@H]1O[C@@](C#N)(c2ccc3c(N)ncnn23)[C@H](O)[C@@H]1O)OCc1cccc(F)c1`, the selectivity ratio is 422 in data set [1], 392 in data set [2] and more than 369 in data set [3].

Regarding `N#C[C@@]1(c2ccc3c(N)ncnn23)O[C@H](CO)[C@@H](O)[C@H]1O` [GS-441524], the selectivity ratio in [1] is more than 666. Further, the EC50 in the data set on SARS-CoV-2 [14] is 0.15 µM. The EC90 in the data set on SARS-CoV-2 [14] (time 48.5 hrs) was 0.18 µM. The CC50 at 48.5 h in data set [15] was more than 100 µM.
